Results from patent US12201628B2, “Neuronal modulation” (priority 2013, dated 2025).

Key:
GFP-expressing E. coli = assay: In-vivo E. coli phagocytosis; design: species or system mice; conditions: E. coli injected 24 h after VTA activation, analysed 2 h later; vs controls
Procedure: Virus-injected mice were IP treated with CNO. Twenty four hours later, GFP-expressing E. coli (MG165K12; 8×10^8 CFU/mouse) were injected IP. After two hours, the peritoneal lymphocytes were collected by peritoneal lavage. For peritoneal lavage, the mice were sacrificed and their skin was cleaned with 70% ethanol. Then, 5 ml ice-cold PBS containing 1% fetal bovine serum were injected into the peritoneum, followed by gentle massage to allow distribution of the lavage fluid throughout the peritoneal cavity. The fluid was then collected using a 5 ml syringe attached to a 21-gauge needle, and cells were then washed twice in FACS staining buffer (PBS containing 1% bovine serum albumin and 0.05% sodium azide). In order to evaluate the degree of monocyte phagocytosis of the fluorescent bacteria, peritoneal lavage cells were stained with PerCP-conjugated anti-CD11b antibody (M1/70, Biolegend). All samples were analyzed on an LSRFortessa cell analyzer (BD Biosciences, NJ). […]
To determine the effects of VTA activation on antibacterial activity in vivo, the VTA-dopaminergic neurons were activated, and 24 h later injected the mice with GFP-expressing E. coli. Two hours later, lymphocytes were extracted from the peritoneal cavity of the mice and determined by flow cytometry GFP levels; only cells that phagocytized the E. coli could express GFP.

IL-4 and IL-1β = assay: Serum cytokine levels (RayBio antibody array, ELISA); type: in vivo, mice; conditions: 24 h after CNO; VTA-activated vs control
Procedure: VTA-activated and control mice were treated with CNO. Twenty four hours later, they were anaesthetized with ketamine/xylazine and their blood was collected by cardiac puncture. The blood was allowed to clot at room temperature for at least 30 minutes. Serum was collected by centrifuging the sample at 400 g for 10 min. The serum samples pooled from each experimental group (VTA-activated group and control group) were analyzed for cytokine and chemokine levels using the RayBio custom G-Series mouse cytokine antibody array kit (RayBiotech; Norcross, GA) according to manufacturer's instructions. The panel included: CD30 ligand, Eotaxin-1, Eotaxin-2, IFN-γ, IL-1α, IL-1β, IL-2, IL-3, IL-4, IL-6, IL-9, IL-10, IL-12 p40/p70, IL-12 p70, IL-13, IL-17A, MIP-1α, MIP-1γ, RANTES and TNFα. Murine IL-4 and IL-1β standard ELISA kits (PeproTech; Rocky Hill, NJ) were used as a quantitative validation of the IL-4 and IL-1β levels measured with the antibody array kit.

[1] = mice; cited from earlier work

In the case of C[N+]1([O-])CCN(C2=Nc3cc(Cl)ccc3Nc3ccccc32)CC1 [CNO, clozapine-N-oxide], the “number of CD11b+GFP+ cells in the peritoneum” value (GFP-expressing E. coli) is reported as “increased number of CD11b+GFP+ cells”, the “serum IL-1β level” value (IL-4 and IL-1β) is reported as “significantly reduced” and the “serum IL-4 level” value (IL-4 and IL-1β) is reported as “significantly reduced”. The “conversion of CNO to clozapine” value [1] was “does not convert to clozapine”.
